According to patent US4902794A, “Triazolo-benzodiazepines” (The Upjohn Company, priority 1983, dated 1990):

Legend:
mice [1] = assay: Pedestal test; format: in vivo; conditions: Mus musculus, ip, intraperitoneal, stay on the pedestal for more than 1 minute, read-out: ED50, Pedestal test (P)
Method: (§1) Sedative effects of 8-chloro-1-(hydroxymethyl)-6-phenyl-4H-s-triazolo[4,3-a][1,4]benzodiazepine (A) are shown by the following tests in mice:
Pedestal test: The untreated mouse leaves the pedestal in less than a minute to climb back to the floor of the standard mouse box. Tranquilized mice will stay on the pedestal for more than 1 minute.

[2] = LD50 (lethal dose) in mice; conditions: mouse, in vivo
mice [3] = assay: Chimney test; format: in vivo; conditions: Mus musculus, ip, intraperitoneal, failure to back up and out of vertical glass cylinder within 30 seconds, read-out: ED50, Chimney test (Ch)
Source text: as §1
The test determines the ability of mice to back up and out of a vertical glass cylinder within 30 seconds. At the effective dosage, 50% of the mice failed doing it.

mice [4] = assay: Dish test; format: in vivo; conditions: Mus musculus, ip, intraperitoneal, remaining in the dish for more than 3 minutes, read-out: ED50, Dish test (D)
Method: as §1
Dish test: Mice in Petri dishes (10 cm. diameter, 5 cm. higher, partially embedded in wood shavings), climb out in a very short itme, when not treated. Mice remaining in the dish for more than 3 minutes indicates tranquilization. The ED50 equals the dose of test compound at which 50% of the mice remain in the dish. The ED50 (intraperitoneal administration) in this test was 2.0 mg./kg.

mice [5] = assay: Nicotine antagonism test; format: in vivo; conditions: Mus musculus, ip, intraperitoneal, nicotine salicylate 2 mg./kg. thirty minutes later
Method: as §1
Nicotine antagonism test: Mice in a group of 6 are injected with the test compound-8-chloro-1-(hydroxymethyl)-6phenyl-4H-s-triazolo[4,3-a][1,4]benzodiazepine. Thirty minutes later the mice including control (untreated) mice are injected with nicotine salicylate (2 mg./kg.). The control mice show overstimulation, i.e., (1) running convulsions followed by (2) tonic extensor fits; followed by (3) death. […] (ED50) was necessary.

[6] = read-out: ED50, Nicotine antagonism (3) test (Ni): protection of 50% of the mice against death

| SMILES | ED50 (mice [1]) | LD50 [2] | ED50 (mice [3]) | ED50 (mice [4]) | ED50 (mice [5]; read-out: ED50, Nicotine antagonism (2) test: dosage protecting 50% of the mice against tonic extensor fits) | ED50 (mice [5]; [6]) |
| --- | --- | --- | --- | --- | --- | --- |
| OCc1nnc2n1-c1ccc(Cl)cc1C(c1ccccc1)=NC2 [A, 8-chloro-1-(hydroxymethyl)-6-phenyl-4H-s-triazolo[4,3-a][1,4]benzodiazepine] | 1.56 mg/kg | > 100 mg/kg | 0.63 mg/kg | 2 mg/kg | 0.08 mg/kg | 0.1 mg/kg |
| CCOCc1nnc2n1-c1ccc(Cl)cc1C(c1ccccc1)=NC2 [B, 8-Chloro-1-(ethoxymethyl)-6-phenyl-4H-s-triazolo[4,3-a][1,4]benzodiazepine] | 1.4 mg/kg | > 100 mg/kg | 1 mg/kg | 1.6 mg/kg | – | 0.6 mg/kg |
| OCc1nnc2n1-c1ccc(Cl)cc1C(c1ccccc1Cl)=NC2 [C, 8-Chloro-1-(hydroxymethyl)-6-(o-chlorophenyl)-4H-s-triazolo[4,3-a][1,4]benzodiazepine] | 0.03 mg/kg | > 100 mg/kg | 0.04 mg/kg | 0.03 mg/kg | – | 0.032 mg/kg |
| O=C(O)CCC(=O)OCc1nnc2n1-c1ccc(Cl)cc1C(c1ccccc1Cl)=NC2 [D, Hydrogensuccinate ester of 8-chloro-1-(hydroxymethyl)-6-(o-chlorophenyl)-4H-s-triazolo[4,3-a][1,4]benzodiazepine] | 0.2 mg/kg | > 25 mg/kg | 0.125 mg/kg | 0.125 mg/kg | – | 0.09 mg/kg |
